The values below come from patent publication US20060205751A1, “Novel compounds” (SmithKline Beecham Corporation, priority 2003, published 2006).

Molecules are shown by their SMILES.

As usually defined, the melting point is the temperature, or range, at which the solid turns liquid.

Consider `O=C(O)c1cccc(-c2cc3cc(Cl)c(Cl)cc3[nH]2)c1` [Example 1, 3-(5,6-Dichloro-1H-indol-2-yl)-benzoic acid], for which the melting point was in the range of 79.5 to 80.5 °C.
